Here are results for 14 compounds from patent publication US11987648B2, “Cyclohexapeptides as selective somatostatin SST5 receptor agonists” (Heptares Therapeutics Limited, priority 2018, dated 2024).

For one experiment, the target named is SST2 (Homo sapiens, UniProt P30874). The experiment can be described thus: Hit Hunter cAMP XS+ assay, SST2 activation via Gi (reduction of forskolin-stimulated cAMP). To be noted: for Emax: read-out: SST2 (EMax). The class given is cell-based. Put shortly: (§1)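 Cells (10,000/well) incubated 30 min at 37 °C with compound under EC80 forskolin ([…] for SST2, 15 μM for SST5). cAMP reduction was detected by enzyme-fragment complementation chemiluminescence after 60 min and 180 min room-temperature reagent steps. Potency and efficacy were both measured.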
SST2, sequence (P30874 whole entry, the tested form may be a part): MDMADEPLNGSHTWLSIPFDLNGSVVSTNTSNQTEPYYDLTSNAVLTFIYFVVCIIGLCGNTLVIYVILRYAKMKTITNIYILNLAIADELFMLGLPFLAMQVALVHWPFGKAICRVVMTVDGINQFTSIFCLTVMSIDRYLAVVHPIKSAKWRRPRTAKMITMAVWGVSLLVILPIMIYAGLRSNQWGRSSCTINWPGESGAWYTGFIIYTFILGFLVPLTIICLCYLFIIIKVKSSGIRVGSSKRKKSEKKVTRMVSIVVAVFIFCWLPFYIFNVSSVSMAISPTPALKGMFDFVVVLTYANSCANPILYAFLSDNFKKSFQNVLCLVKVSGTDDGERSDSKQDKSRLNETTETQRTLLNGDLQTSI

In the next experiment the target is SST5 (Homo sapiens, UniProt P35346). The experiment can be described thus: Hit Hunter cAMP XS+ assay, SST5 activation via Gi (reduction of forskolin-stimulated cAMP). The class given is cell-based. To be noted: for Emax: read-out: SST5 (EMax); for SST5/2 Selectivity: selectivity for SST5 over SST2. Put shortly:
as §1

The conditions of experiment [1]: Phase II trial, hepatocellular carcinoma; cited from earlier work.
For experiment [2] the following is noted: Phase I trial, pancreatic cancer, combination treatment with gemcitabine; cited from earlier work.
Setting [3] is: reduction of forskolin-stimulated cAMP, 4-parameter logistic fit, read-out: SST2 pEC50 (converted).
Setting [4] is: reduction of forskolin-stimulated cAMP, 4-parameter logistic fit, read-out: SST5 pEC50 (converted).
Where [5] appears, read: efficacy normalised to somatostatin 28 (basal 0%, 100% = signal with 50 nM somatostatin 28).

Where two headings read alike, the source gives them in different places. *1 amine or outer side, *2 acyl side, *3 side chain or, on linkers, in order; H or OH if unused. Where a SMILES comes first, the peptide text is derived from it. Side-chain parts run from the residue outwards. [ ]: non-standard residue; d: D form. The star is where a group is joined. Ala(piperidin-4-yl) = O=C([C@H](CC1CCN([*:3])CC1)N[*:1])[*:2]; dTrp(4-OMe) = COc1cccc2[nH]cc(C[C@@H](N)C(=O)O)c12; X8 = COc1cc2c(cc1OC)CN([*:1])[C@H](C(=O)[*:2])C2; Ala(piperazin-1-yl) = N[C@@H](CN1CCNCC1)C(=O)O; Tyr(Ph) = N[C@@H](Cc1ccc(Oc2ccccc2)cc1)C(=O)O; X7 = NCCOC(=O)N1CCN([*:1])[C@H](C(=O)[*:2])C1; Morpholine(3S-CO) = O=C(O)[C@@H]1COCCN1; Pro(4,4-F2) = O=C(O)[C@@H]1CC(F)(F)CN1; Ethylenediamine = C(CN[*:2])N[*:1]; d(hPhe) = N[C@H](CCc1ccccc1)C(=O)O; Hyp = O=C(O)[C@@H]1C[C@@H](O)CN1; Pip(4-aza) = O=C(O)[C@@H]1CNCCN1; hPhe = N[C@@H](CCc1ccccc1)C(=O)O; 3Pal = N[C@@H](Cc1cccnc1)C(=O)O; Cyclohexylmethyl = C1CCC(C*)CC1; Tic = O=C(O)[C@@H]1Cc2ccccc2CN1; Phg = N[C@H](C(=O)O)c1ccccc1; X9 = O=C(C1CNCCN1[*:1])[*:2]; Pip = O=C(O)[C@@H]1CCCCN1; X3 = CN[C@H]1CCN(*)C1; CO = O=C([*:1])[*:2]; Bn = c1ccc(C*)cc1 Where only a bound is given, the exact number is not on record here.

For orientation: Emax means the size of the effect at its maximum, as opposed to the concentration needed.

SST5, sequence (P35346 whole entry): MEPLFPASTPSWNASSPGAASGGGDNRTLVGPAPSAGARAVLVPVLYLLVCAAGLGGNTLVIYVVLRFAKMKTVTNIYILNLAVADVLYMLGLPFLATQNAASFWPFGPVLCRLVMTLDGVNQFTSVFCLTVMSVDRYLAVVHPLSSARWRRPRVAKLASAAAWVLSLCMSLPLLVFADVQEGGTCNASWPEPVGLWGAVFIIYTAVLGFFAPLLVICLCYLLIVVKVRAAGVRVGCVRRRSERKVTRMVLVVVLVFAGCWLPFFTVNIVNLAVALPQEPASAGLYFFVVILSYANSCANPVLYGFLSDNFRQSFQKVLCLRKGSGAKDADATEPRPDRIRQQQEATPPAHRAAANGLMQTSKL

In the case of `COc1cccc2[nH]cc(C[C@H]3NC(=O)[C@@H](CCc4ccccc4)NC(=O)[C@@H]4COCCN4C(=O)[C@@H]4Cc5ccccc5CN4C(=O)[C@H](Cc4ccc(OCc5ccccc5)cc4)NC(=O)[C@H](CN4CCNCC4)NC3=O)c12` [Example 63] (cyclo([Tic][Morpholine(3S-CO)][d(hPhe)][dTrp(4-OMe)][Ala(piperazin-1-yl)]Y(Bn))), the maximal effect (Emax) at SST2 is 102%; on SST5, 104%. Also, the EC50 was 0.0631 µM at SST2 (setting [3]) and 0.00251 µM on SST5 (setting [4]). In addition, the “SST5/2 Selectivity” value on SST5 came to 24.4.

`COc1cccc2[nH]cc(C[C@H]3NC(=O)[C@H](c4ccccc4)NC(=O)[C@@H]4C[C@@H](OC(=O)NCCN)CN4C(=O)[C@H](Cc4ccccc4)NC(=O)[C@H](Cc4ccc(OCc5ccccc5)cc4)NC(=O)[C@H](CN4CCNCC4)NC3=O)c12` [Example 64] (cyclo(F[Hyp]([CO-Ethylenediamine])[Phg][dTrp(4-OMe)][Ala(piperazin-1-yl)]Y(Bn))): the Emax on SST2 came to 100%; on SST5, 104%. Also, the EC50 is 0.1 µM on SST2 (setting [3]) and 0.0158 µM at SST5 (setting [4]). Moreover, the “SST5/2 Selectivity” value at SST5 is listed as 5.5.

Turning to `O=C1N[C@@H](CCc2ccccc2)C(=O)N[C@H](Cc2c[nH]c3ccccc23)C(=O)N[C@@H](CN2CCNCC2)C(=O)N[C@@H](Cc2ccc(OCc3ccccc3)cc2)C(=O)N2Cc3ccccc3C[C@H]2C(=O)N2CCNCC12` (stereo partly shown) [Example 65] (cyclo([Tic][X9][hPhe][dW][Ala(piperazin-1-yl)]Y(Bn))), the results for the Emax on SST2 and at SST5 were 91.8% and 99.4%, respectively. Also, the EC50 on SST2 (setting [3]) is 1 µM; at SST5 (setting [4]), 0.000398 µM. Besides, the “SST5/2 Selectivity” value at SST5 was 2293.7.

For `COc1cc2c(cc1OC)CN1C(=O)[C@H](Cc3ccc(OCc4ccccc4)cc3)NC(=O)[C@H](CC3CCNCC3)NC(=O)[C@@H](Cc3c[nH]c4ccccc34)NC(=O)[C@H](CCc3ccccc3)NC(=O)[C@@H]3C[C@@H](OC(=O)NCCN)CN3C(=O)[C@@H]1C2` [Example 66] (cyclo([Hyp]([CO-Ethylenediamine])[hPhe][dW][Ala(piperidin-4-yl)]Y(Bn)[X8])), the Emax at SST2 amounted to 51.1%; at SST5, 103%. In addition, the results for the EC50 on SST2 (setting [3]) and at SST5 (setting [4]) were above 10 µM and 0.00126 µM, respectively. In addition, on SST5, the “SST5/2 Selectivity” value worked out at 7454.5.

In the case of `NCCNC(=O)O[C@@H]1C[C@H]2C(=O)N[C@@H](CCc3ccccc3)C(=O)N[C@H](Cc3c[nH]c4ccccc34)C(=O)N[C@@H](CC3CCNCC3)C(=O)N[C@@H](Cc3ccc(Oc4ccccc4)cc3)C(=O)N[C@@H](Cc3cccnc3)C(=O)N2C1` [Example 67] (cyclo([3Pal][Hyp]([CO-Ethylenediamine])[hPhe][dW][Ala(piperidin-4-yl)][Tyr(Ph)])), the Emax at SST2 was 98.3%; on SST5, 104%. For the same compound, the values for the EC50 at SST2 (setting [3]) and on SST5 (setting [4]) were 0.398 µM and 0.0158 µM, respectively. In addition, the “SST5/2 Selectivity” value on SST5 is 25.7.

With `COc1cccc2[nH]cc(C[C@H]3NC(=O)[C@H](CCc4ccccc4)NC(=O)[C@@H]4COCCN4C(=O)[C@@H]4Cc5ccccc5CN4C(=O)[C@H](Cc4ccc(OCc5ccccc5)cc4)NC(=O)[C@H](CN4CCNCC4)NC3=O)c12` [Example 68] (cyclo([Tic][Morpholine(3S-CO)][hPhe][dTrp(4-OMe)][Ala(piperazin-1-yl)]Y(Bn))), the Emax on SST2 came to 99.1%; on SST5 it was 98.8%. Besides, the values for the EC50 at SST2 (setting [3]) and on SST5 (setting [4]) were 0.251 µM and 0.000316 µM, respectively. Also, the “SST5/2 Selectivity” value at SST5 turned out to be 791.6.

For the compound `NCCNC(=O)O[C@@H]1C[C@H]2C(=O)N[C@@H](CCc3ccccc3)C(=O)N[C@H](Cc3c[nH]c4ccccc34)C(=O)N[C@@H](CN3CCNCC3)C(=O)N[C@@H](Cc3ccc(OCc4ccccc4)cc3)C(=O)N3CCCC[C@H]3C(=O)N2C1` [Example 69] (cyclo([Hyp]([CO-Ethylenediamine])[hPhe][dW][Ala(piperazin-1-yl)]Y(Bn)[Pip])), the Emax came to 69% at SST2 and 103% at SST5. The EC50 on SST2 (setting [3]) was above 10 µM; at SST5 (setting [4]) it was 0.0794 µM. Further, at SST5, the “SST5/2 Selectivity” value is listed as 124.3.

Take `NCCNC(=O)O[C@@H]1C[C@H]2C(=O)N[C@@H](CCc3ccccc3)C(=O)N[C@H](Cc3c[nH]c4ccccc34)C(=O)N[C@@H](CN3CCNCC3)C(=O)N[C@@H](Cc3ccc(OCc4ccccc4)cc3)C(=O)N3CC(F)(F)C[C@H]3C(=O)N2C1` [Example 70] (cyclo([Hyp]([CO-Ethylenediamine])[hPhe][dW][Ala(piperazin-1-yl)]Y(Bn)[Pro(4,4-F2)])): the Emax on SST2 was 77.9%; at SST5, 102%. The EC50 was above 10 µM at SST2 (setting [3]) and 0.00501 µM at SST5 (setting [4]). Also, at SST5, the “SST5/2 Selectivity” value is 1815.8.

On to `NCCNC(=O)O[C@@H]1C[C@H]2C(=O)N[C@H](CCc3ccccc3)C(=O)N[C@H](Cc3c[nH]c4ccccc34)C(=O)N[C@@H](CN3CCNCC3)C(=O)N[C@@H](Cc3ccc(OCC4CCCCC4)cc3)C(=O)N[C@@H](Cc3cccnc3)C(=O)N2C1` [Example 71] (cyclo([3Pal][Hyp]([CO-Ethylenediamine])[d(hPhe)][dW][Ala(piperazin-1-yl)]Y(Cyclohexylmethyl))), for which the figures for the maximal effect (Emax) on SST2 and at SST5 were 52.8% and 103%, respectively. The results for the EC50 on SST2 (setting [3]) and on SST5 (setting [4]) were above 10 µM and 0.0631 µM, respectively. Besides, the “SST5/2 Selectivity” value on SST5 turned out to be 171.4.

Consider `NCCOC(=O)N1CCN2C(=O)[C@@H]3Cc4ccccc4CN3C(=O)[C@H](Cc3ccc(OCc4ccccc4)cc3)NC(=O)[C@H](CN3CCNCC3)NC(=O)[C@@H](Cc3c[nH]c4ccccc34)NC(=O)[C@H](CCc3ccccc3)NC(=O)[C@@H]2C1` [Example 72] (cyclo([Tic][X7][hPhe][dW][Ala(piperazin-1-yl)]Y(Bn))), for which the Emax stood at 14% at SST2 and 101% on SST5. Also, the EC50 on SST2 (setting [3]) was above 10 µM; at SST5 (setting [4]) it was 0.00631 µM. Further, the “SST5/2 Selectivity” value on SST5 was determined as 1621.3.

With `O=C1N[C@@H](Cc2ccc(OCc3ccccc3)cc2)C(=O)N2Cc3ccccc3C[C@H]2C(=O)N2CCNC[C@H]2C(=O)N[C@@H](CCc2ccccc2)C(=O)N[C@H](Cc2c[nH]c3ccccc23)C(=O)N[C@H]1CC1CCNCC1` [Example 73] (cyclo([Tic][Pip(4-aza)][hPhe][dW][Ala(piperidin-4-yl)]Y(Bn))), the Emax was determined as 99.2% on SST2 and 94.9% at SST5. For the same compound, the EC50 on SST2 (setting [3]) is 0.398 µM; at SST5 (setting [4]), 0.000631 µM. Besides, the “SST5/2 Selectivity” value at SST5 was found to be 566.7.

Take `CN[C@H]1CCN(C(=O)O[C@@H]2C[C@H]3C(=O)N[C@@H](CCc4ccccc4)C(=O)N[C@H](Cc4c[nH]c5ccccc45)C(=O)N[C@@H](CC4CCNCC4)C(=O)N[C@@H](Cc4ccc(OCc5ccccc5)cc4)C(=O)N4Cc5ccccc5C[C@H]4C(=O)N3C2)C1` [Example 78] (cyclo([Hyp]([CO-X3])[hPhe][dW][Ala(piperidin-4-yl)]Y(Bn)[Tic])): the results for the Emax at SST2 and on SST5 were 76.2% and 106%, respectively. Further, the EC50 at SST2 (setting [3]) is 3.16 µM; at SST5 (setting [4]) it was 0.00126 µM. On SST5, the “SST5/2 Selectivity” value is listed as 2726.7.

`NCCCC[C@@H]1NC(=O)[C@@H](Cc2c[nH]c3ccccc23)NC(=O)[C@H](c2ccccc2)NC(=O)[C@@H]2C[C@@H](OC(=O)NCCN)CN2C(=O)[C@H](Cc2ccccc2)NC(=O)[C@H](Cc2ccc(OCc3ccccc3)cc2)NC1=O` [pasireotide, reference compound] (cyclo([Hyp]([CO-Ethylenediamine])[Phg][dW]KY(Bn)F)): the “patients with limitation of disease progression” value in experiment [1] is 45%. Moreover, on SST2, the EC50 was 0.001 µM and the Emax turned out to be 100%. Further, the disease control rate in experiment [2] is on record as 68%. Moreover, on SST5, the EC50 was 0.000251 µM, the Emax is 102% and the “SST5/2 Selectivity” value is on record as 3.8.

With somatostatin 28 [reference compound], the “SST2 (EMax)” value at SST2 (setting [5]) is reported as 100.4%. In addition, the “SST5 (EMax)” value at SST5 (setting [5]) was 101.0%. In addition, the “SST5/2 Selectivity” value at SST5 came out at 4.6.
